From US20110223167A1, “COMBINATION THERAPY USING RECEPTOR TYROSINE KINASE INHIBITORS AND ANGIOGENESIS INHIBITORS” (priority 2001, published 2011)

Tested on: progressive squamous cell carcinoma of the superior maxilla
Conditions: for tumor response: weekly: 1200 mg/m^2 Cilengitide Monday and Friday, 200 mg EMD 72000 followed by 1000 mg/m^2 gemcitabine Thursday, from November 2000; for effect on tumor growth: cisplatin (75 mg/m^2) and docetaxel (75 mg/m^2) together, three administrations, from August 1999
[1] = EMD 121974 (600 mg/m^2) combined with gemcitabine (1000 mg/m^2), since mid of January 2000

Procedure: Case History and Clinical Findings/Status at the Start of the Compassionate use Treatment:
A biopsy of the suspected large tumor in the upper maxilla was performed. […] On Aug. […] Due to the unfavourable histologic classification the patient received a post-operative radiation therapy up to 50.4 Gray from September to October 1997.
In July 1998 progression of disease was suspected which led to hospitalization. […] After consultation of radiotherapists another radiotherapy was recommended which started in August 1998. The patient was treated simultaneously with gemcitabine (100 mg) as a radiosensitizer. […] Following the combined radio-chemotherapy the patient received a therapy with 1000 mg gemcitabine (5 circles of 16 administrations).
In March 1999 again progression of the carcinoma occurred which led to additional radiation therapy and palliative resection of the tumor.
Diffuse bleedings out of the large tumor mass required frequent transfusions of erythrocyte concentrates.
Course of Compassionate Use Treatment with Anti-Angiogenic Agent/Chemotherapeutic Agents:
The patient was treated with EMD 121974 and Gemzar from Nov. 17, 1999 until Mar. 30, 2000. From Jun. 04, 2000 until Apr. […] Chemotherapy-treatment was stopped because of haematotoxicity and Cilengitide treatment was continued alone.
The patient's condition worsened after several weeks and the patient was treated with an increased dose of 1200 mg/m^2 EMD 121974 twice weekly.
Treatment with h425+Cilengitide+Chemotherapeutics:
EMD 72000 was first given in November 2000 in a dosage of 200 mg (infusion over half an hour) after premedication with dexamethasone/dimetindenmaleate (Fenistil) and ranitidin (Zantic). One week later the patient received additionally gemcitabine (1000 mg/m^2). The weekly treatment schedule was: Monday: 1200 mg/m^2 Cilengitide (one hour is infusion), Thursday 200 mg EMD 72000 (half an hour infusion) followed by 1000 mg/m^2 gemcitabine (one hour infusion), Friday 1200 mg/m^2 Cilengitide (one hour infusion). […] The tumor masses were surgically removed at several occasions.

For `CC(C)[C@H]1C(=O)N[C@@H](CCCN=C(N)N)C(=O)NCC(=O)N[C@@H](CC(=O)O)C(=O)N[C@H](Cc2ccccc2)C(=O)N1C` [EMD 121974, Cyclo-(Arg-Gly-Asp-DPhe-NMeVal)], which “surface of the tumor” value (EMD 121974 (600 mg/m^2) combined with gemcitabine (1000 mg/m^2)) is on record?
Its value is “signs of granulation and wound healing”.

And the tumor bleeding (EMD 121974 (600 mg/m^2) combined with gemcitabine (1000 mg/m^2), no need for further transfusions)?
Its tumor bleeding is “Bleeding stopped”.

What about the hearing [1] of the same compound?
Its hearing is “able to hear again on their right ear”.

And the “increase of mouth opening compared with December 1999” value [1]?
Its value is 30%.

And the disease status (EMD 121974 alone, 600 mg/m^2 twice a week, April to June 2000)?
The disease status was “stable disease”.

What about the tumor response of the same compound?
Its tumor response is “crater-like disintegration of the tumor mass”.

With `N.N.[Cl][Pt][Cl]` [cisplatin, reference compound] as the compound, how does the “effect on tumor growth” value read?
Its value is “lack of effect on tumor growth”.

Which “effect on tumor growth” value does the source give for `CC(=O)O[C@@]12CO[C@@H]1C[C@H](O)[C@@]1(C)C(=O)[C@H](O)C3=C(C)[C@@H](OC(=O)[C@H](O)[C@@H](NC(=O)OC(C)(C)C)c4ccccc4)C[C@@](O)([C@@H](OC(=O)c4ccccc4)[C@H]21)C3(C)C` [docetaxel, reference compound] here?
Its value is “lack of effect on tumor growth”.

How did the “tumor response (clinical remission)” value (radiotherapy with simultaneous gemcitabine (100 mg) as radiosensitizer, 6 week-therapy from August 1998) turn out when `Nc1ccn([C@@H]2O[C@H](CO)[C@@H](O)C2(F)F)c(=O)n1` [gemcitabine, reference compound] was run?
The value was “complete clinical remission”.

Which tumor response does the source give for “EMD 72000: Monoclonal human antibody 425 (h425), Merck KgaA, Germany; anti-EGFR antibody” here?
The tumor response was “crater-like disintegration of the tumor mass”.
